Counter-ions that a name gives are not always drawn.
What follows are compounds tested on human liver cancer-derived cell line Hep3B (assay: In vitro erythropoietin (EPO) induction activity in Hep3B cells (EPO ELISA of culture supernatant)). Conditions: test compound 12.5 μM, 32 hours at 37° C., multiple of the EPO concentration in the control (0.5% DMSO).
Format: cell-based
Description: In vitro erythropoietin (EPO) induction activity of test compounds was evaluated using human liver cancer-derived cell line Hep3B (ATCC, Manassas, Va.). Hep3B cells were cultured overnight at 37° C. in Dulbecco's modified Eagle's medium (DMEM) in the presence of 10% fetal bovine serum (FBS) (24-well plate, 1.0×10^5 cells/well). After replacing with fresh DMEM (+10% FBS) containing a test compound dissolved in 0.5% dimethyl sulfoxide (DMSO) (prepared to a concentration of 12.5 μM) or a solvent control (0.5% DMSO), the cells were cultured for 32 hours at 37° C. After recovering the culture supernatant, EPO concentration in the culture supernatant was quantified using human EPO ELISA kits (StemCell Technologies).
The EPO concentration using a compound of each example as a test compound was expressed as a multiple of the EPO concentration in the control.
`O=C(O)CCC(=O)Nc1ncc(C(=O)NCc2ccc(F)c(F)c2)c(O)n1` [Example 13, 4-({5-[(3,4-Difluorophenyl)methylcarbamoyl]-4-hydroxypyrimidin-2-yl}amino)-4-oxobutanoic acid] showed a fold induction at 12.5 µM of 13. With `O=C(O)CCC(=O)Nc1ncc(C(=O)NCc2ccc(F)c(-c3ccccc3)c2)c(O)n1` [Example 5, 4-({5-[(4-Fluoro-3-phenylphenyl)methylcarbamoyl]-4-hydroxypyrimidin-2-yl}amino)-4-oxobutanoic acid] the fold induction at 12.5 µM was 6.3. In the case of `O=C(O)CCC(=O)Nc1ncc(C(=O)NCc2ccc(F)cc2F)c(O)n1` [Example 2, 4-({5-[(2,4-Difluorophenyl)methylcarbamoyl]-4-hydroxypyrimidin-2-yl}amino)-4-oxobutanoic acid], the fold induction at 12.5 µM was 7.9. `O=C(O)CCC(=O)Nc1ncc(C(=O)NCc2cccc(C(F)(F)F)c2)c(O)n1` [Example 11, 4-[(4-Hydroxy-5-{[3-(trifluoromethyl)phenyl]methylcarbamoyl}pyrimidin-2-yl)amino]-4-oxobutanoic acid] was tested, and the fold induction at 12.5 µM was 7.5. With `O=C(O)CCC(=O)Nc1ncc(C(=O)NCc2cccc(-c3ccccc3)c2)c(O)n1` [Example 6, 4-({4-Hydroxy-5-[(3-phenylphenyl)methylcarbamoyl]pyrimidin-2-yl}amino)-4-oxobutanoic acid] the fold induction at 12.5 µM was 3.7. `O=C(O)CCC(=O)Nc1ncc(C(=O)NCc2ccc(Cl)cc2Cl)c(O)n1` [Example 1, 4-({5-[(2,4-Dichlorophenyl)methylcarbamoyl]-4-hydroxypyrimidin-2-yl}amino)-4-oxobutanoic acid] was tested, and the fold induction at 12.5 µM was 3.6. In the case of `O=C(O)CCC(=O)Nc1ncc(C(=O)NCc2cccc(F)c2)c(O)n1` [Example 12, 4-({5-[(3-Fluorophenyl)methylcarbamoyl]-4-hydroxypyrimidin-2-yl}amino)-4-oxobutanoic acid], the fold induction at 12.5 µM was 7.2. Work on `COc1ccc(-c2ccc(C(C)(C)NC(=O)c3cnc(NC(=O)CCC(=O)O)nc3O)cn2)cc1` [Example 10, 4-{[4-Hydroxy-5-({1-[6-(4-methoxyphenyl)pyridin-3-yl]-1-methylethyl}carbamoyl)pyrimidin-2-yl]amino}-4-oxobutanoic acid trifluoroacetate] yielded a fold induction at 12.5 µM of 10. With `O=C(O)CCC(=O)Nc1ncc(C(=O)NCc2ccc(F)cc2Cl)c(O)n1` [Example 3, 4-({5-[(2-Chloro-4-fluorophenyl)methylcarbamoyl]-4-hydroxypyrimidin-2-yl}amino)-4-oxobutanoic acid] the fold induction at 12.5 µM was 9.5. With `COc1ccc(C(NC(=O)c2cnc(NC(=O)CCC(=O)O)nc2O)C2CCOCC2)cn1` (stereo not drawn) [Example 9, 4-[(4-Hydroxy-5-{[(6-methoxypyridin-3-yl)(tetrahydro-2H-pyran-4-yl)methyl]carbamoyl}pyrimidin-2-yl)amino]-4-oxobutanoic acid trifluoroacetate] the fold induction at 12.5 µM was 16. `Cc1cccc(CNC(=O)c2cnc(NC(=O)CCC(=O)O)nc2O)c1` [Example 14, 4-{[4-Hydroxy-5-(m-tolylmethylcarbamoyl)pyrimidin-2-yl]amino}-4-oxobutanoic acid] gave a fold induction at 12.5 µM of 3. In the case of `O=C(O)CCC(=O)Nc1ncc(C(=O)NCc2cccc(C3CCCC3)c2)c(O)n1` [Example 17, 4-({5-[(3-Cyclopentylphenyl)methylcarbamoyl]-4-hydroxypyrimidin-2-yl}amino)-4-oxobutanoic acid], the fold induction at 12.5 µM was 4.4.

— patent publication US9206168B2, “(2-heteroarylamino) succinic acid derivatives” (Daiichi Sankyo Company, Limited, priority 2012, dated 2015)
